US20230241190A1, “VACCINE FOR TREATING MULTIPLE SCLEROSIS” (RESEARCH & BUSINESS FOUNDATION SUNGKYUNKWAN UNIVERSITY, priority 2022, published 2023)

System: EAE (experimental autoimmune encephalomyelitis)
Assay: EAE semi-therapeutic vaccine study (clinical score, EAE-free mice)
Type: in vivo, C57BL/6 mice
Conditions: intravenous injection on days 4, 7 and 10 after EAE induction (semi-therapeutics)
Procedure: EAE was induced in female C57BL/6 mice aged 10-11 weeks using a kit (EK-2110) from Hooke Laboratory (Lawrence, Mass., USA). Briefly, on day 0, mice were subcutaneously injected with an emulsion containing MOG35-55 peptide and complete Freund's adjuvant (CFA), in the lower and upper back. After 2 and 24 h, the animals were intraperitoneally injected with pertussis toxin (PTX) according to the manufacturer's instructions. EAE clinical score was evaluated after day 8, post-EAE induction based on the standard protocol in a blinded manner (0, no obvious symptoms; 0.5, tip of tail was limp; 1, limp tail; 1.5, limp tail and hind leg inhibition; 2, limp tail and weakness of hind legs; 2.5, limp tail and dragging of hind legs; 3, complete paralysis of hind legs; 3.5, complete paralysis of hind legs and hind legs together on one side of the body; 4, full hind leg and partial front leg paralysis; 4.5 full hind leg and partial front leg paralysis, no movement). Paralyzed mice were given easier access to water and food. Mice were euthanized if any of the following conditions were observed unable to eat, unresponsive when scored as 4, when scored as 4 for two consecutive days, both hind limbs and forelimbs were completely paralyzed. […]

myelin oligodendrocyte glycoprotein (MOG) peptide 35-55 [soluble MOG]
EAE progression / development (clinical score): slightly delayed EAE progression
